Results as given in patent publication US5216142A, “Anti-virals” (Efamol Holdings plc, priority 1989, dated 1993).
In brackets after ≈: the same amount, converted by molar mass. Entries after “also recorded” stand apart in the source; their conditions may differ. Where two headings read alike, the source gives them in different places.

Assays:
[1] = tested on: herpes simplex virus Type I; assay: Inactivation of virus (30 minutes incubation, plaque assay); assay type: cell-based, Type 1, Troisbel strain; conditions: for log reduction at 5 µg/mL: 5 mg/l
Method: 1. A virus solution containing 2×10^5 pfu/ml is prepared in phosphate buffered saline (Dulbecco's A).
2. The compound to be tested is made up in Dulbecco's medium A in a suitable range of dilutions.
3. Equal volumes of the virus and drug solution are mixed together. Control solutions without drug are also used.
4. The virus and drug are incubated for an appropriate period of time, in this example, thirty minutes.
5. The numbers of active viral particles in the solution are assayed as in items 4 and 5 under A.
The results are shown below (Table 6). In the Table, the figures are concentrations of viral particles present after incubation of the virus for 30 minutes with solutions of the drugs.

[2] = tested on: herpes simplex virus Type I (HSV I); assay: Inhibition of virus replication (plaque assay, BHK-21 cells); assay type: cell-based, Type 1, Troisbel strain; conditions: for log reduction at 0.1 µg/mL: 0.1 mg/l
Method: 1. Mono-layers of baby hamster kidney cells (BHK-21) are prepared in Petri dishes containing ETC medium (Eagle's minimal essential medium +10% tryptose phosphate broth +10% new born calf serum).
2. After incubation the medium is poured off to leave the layer of cells attached to the Petri dish. A solution containing virus, specifically herpes simplex virus Type I (HSV I) for example, in ETC medium is then added to the dish and incubated with intermittent rocking for one hour to allow the virus to adsorb to the cells of the mono-layer. Unadsorbed virus is then removed by pouring off the virus-containing medium and washing twice with new sterile medium. Then new medium is added to each Petri dish. At this stage various concentrations of drug can be added to the medium.
3. […] First the dishes are frozen to -70° C. and thawed to disrupt the mono-layer and break up the cells. Then the medium and the disrupted cells are transferred to bijou bottles and sonicated to break down the cells completely and to release all the virus particles the cells contain. The sonicated medium is then diluted with fresh sterile ETC medium to give concentrations of the original Petri dish fluid of 10^-2, 10^-4, 10^-6 and 10^-8.
4. The number of virus particles (plaque forming units) in the dilutions is then assayed. A standard number of BHK cells (usually 8×10^6) is added to 2 ml of the diluted solutions and incubated for one hour, with cautious, gentle shaking, and 8 ml of Eagle's minimal essential medium +2% new born calf serum + carboxymethyl cellulose is then added to the cell suspension. This medium has gelling properties which prevent spreading of the virus through the medium and which encourage the formation of discrete plaques in cell mono-layers. The medium from each dilution is then dispensed into Petri dishes and incubated for two to three days.
5. The number of plaques formed is then counted and the amount of active virus expressed as the number of plaque forming units (pfus) as follows. The medium is poured off and the cell mono-layer is fixed using 10% formol saline and stained with dilute carbol fuchsin. The number of plaques in each Petri dish is counted. Based on the dilutions, the number of plaque forming virus particles in the original solutions is calculated.
In the Table, the figures are the concentration of viral particles in pfu/ml present in the cells + medium at the end of the replication stage (3).

[3] = tested on: HTLV-IIIB; assay: Anti-HIV activity assay, HTLV-IIIB (MT-4 cells, MTT method); assay type: cell-based; conditions: for Selectivity index (SI): CD50/ED50, HTLV-IIIB; for EC50: Human immunodeficiency virus 1, MT4, 120 h, MT-4 cells, five days, HTLV-IIIB, read-out: ED50 (50% effective dose)
Method: (§1) Results in relation to HIV virus were obtained by the method of Pauwels et al, Journal of Virological Methods 20, 309 to 321 (1988), as follows:
(§2) MT-4 cells (2.5×10^4 /well) were infected with HIV (100 CCID50) and incubated in the presence of varying concentrations of the test compounds (added immediately after virus infection). After five days incubation at 37° C. in a CO2 incubator, the number of viable cells was assessed by the MTT (tetrazolium) method. Anti-viral activity and cytotoxicity of the compounds are expressed as ED50 (50% effective dose) and CD50 (50% cytotoxic dose), respectively. SI (selectivity index=CD50 /ED50.
(§3) These are given in Table 8 and Table 9 below in relation to HTLV-IIIB and LAV-2ROD viruses.

[4] = tested on: LAV-2ROD; assay: Anti-HIV activity assay, LAV-2ROD (MT-4 cells, MTT method); assay type: cell-based; conditions: for Selectivity index (SI): CD50/ED50, LAV-2ROD; for EC50: MT4, 120 h, MT-4 cells, five days, LAV-2ROD, read-out: ED50 (50% effective dose)
Method: as §1, §2, §3

[5] = tested on: MT-4 cells; assay: in vitro; assay type: cell-based; conditions: human, 120 h
Method: as §1, §2

[6] = in vitro; assay type: cell-based; conditions: human, mt-4 cells, CD50 (50% cytotoxic dose)
Method: as §1, §2

[7] = Human alphaherpesvirus 1, 0.5 h, 1 mg/l, read-out: Inactivation of virus (log10 reduction in virus titre)
[8] = Human alphaherpesvirus 1, 0.5 h, read-out: Inactivation of virus (log10 reduction in virus titre)
[9] = Human alphaherpesvirus 1, BHK-21, 24 h, read-out: Inhibition of viral replication (log10 reduction in virus titre)
[10] = Human alphaherpesvirus 1, BHK-21, 24 h, 1 mg/l, read-out: Inhibition of viral replication (log10 reduction in virus titre)

SMILES | Virucidal activity / inactivation of herpes virus (in words) [1] | log reduction at 1 µg/mL [1, 7] | log reduction at 5 µg/mL [1, 8] | log reduction at 0.1 µg/mL [2, 9] | log reduction at 1 µg/mL [2, 10] | Selectivity index (SI) [3] | EC50 [3] | Selectivity index (SI) [4] | EC50 [4] | % in chloroform phase (partition co-efficients, water/chloroform) | CD50 (50% cytotoxic dose) [5] | CC50 at 120 h [6] | further results
CCCCC/C=C\C/C=C\CCCCCCCC(=O)Nc1nc2c(ncn2COCCO)c(=O)[nH]1 [AK 13] | virucidal | 1.3 | 1.8 | 2.45 | 4.3 |  |  |  |  |  |  |  | 
CCCCC/C=C\C/C=C\C/C=C\CCCCC(=O)Nc1nc2c(ncn2COCCOC(=O)CCCC/C=C\C/C=C\C/C=C\CCCCC)c(=O)[nH]1 [AK 10, digamma-linolenyl acyclovir] | virucidal; also recorded: very effective | 0.94 | 1.54 | 0.45 | 1.13 | < 1 | > 8 µg/mL | < 1 | > 40 µg/mL | > 99% |  |  | log reduction at 1 µg/mL ([1]; Human alphaherpesvirus 1, 0.5 h, 1 mg/liter solution, read-out: Inactivation of virus, log): 1; killing at 1 µg/mL ([1]; Human alphaherpesvirus 1, 0.5 h, 1 mg/liter solution, read-out: Inactivation of virus, percent): 90%; Inhibition of herpes virus replication (in words) [2]: very effective; log reduction at 0.5 µg/mL ([2]; Human alphaherpesvirus 1, BHK-21, 24 h, 0.5 mg/l, read-out: Inhibition of viral replication (log10 reduction in virus titre)): 0.86; log reduction at 1 µg/mL ([2]; Human alphaherpesvirus 1, BHK-21, 24 h, 1 mg/liter solution, read-out: Reduction of virus replication, log): 1; inhibition at 1 µg/mL ([2]; Human alphaherpesvirus 1, BHK-21, 24 h, 1 mg/liter solution, read-out: Reduction of virus replication, percent): 90%
CCCCC/C=C\C/C=C\CCCCCCCC(=O)OC[C@H]1O[C@@H]2C[C@H]1Oc1nc(=O)c(C)cn12 [AK 4] | virucidal | 2.75 | 2.9 |  |  | < 1 | > 40 µg/mL | < 1 | > 40 µg/mL | > 99% | 17.4332 µg/mL | 18.2 µg/mL (≈ 37.3 µM) | Inhibition of viral replication (in words) ([2]; up to 100 mg/l): no inhibition
CCCCC/C=C\C/C=C\C/C=C\CCCCC(=O)Nc1nc2c(ncn2COCCO)c(=O)[nH]1 [AK 12] | virucidal | 0.6 | 1.4 | 1.9 | 3.9 |  |  |  |  |  |  |  | 
CCCCC/C=C\C/C=C\C/C=C\CCCCC(=O)OC[C@H]1O[C@@H]2C[C@H]1Oc1nc(=O)c(C)cn12 [AK 3, GLA - Anhydrothymidine] | virucidal | 2.7 |  |  |  | < 1 | > 40 µg/mL | < 1 | > 40 µg/mL | > 98% | 16.8593 µg/mL | 17.7 µg/mL (≈ 36.6 µM) | log reduction at 0.5 µg/mL ([1]; Human alphaherpesvirus 1, 0.5 h, 0.5 mg/l, read-out: Inactivation of virus (log10 reduction in virus titre)): 1.6; log reduction at 25 µg/mL ([2]; Human alphaherpesvirus 1, BHK-21, 24 h, 25 mg/l, read-out: Inhibition of viral replication (log10 reduction in virus titre)): 0.5; log reduction at 50 µg/mL ([2]; Human alphaherpesvirus 1, BHK-21, 24 h, 50 mg/l, read-out: Inhibition of viral replication (log10 reduction in virus titre)): 0.9; log reduction at 100 µg/mL ([2]; Human alphaherpesvirus 1, BHK-21, 24 h, 100 mg/l, read-out: Inhibition of viral replication (log10 reduction in virus titre)): 1.2
CCCCC/C=C\C/C=C\CCCCCCCC(=O)OC[C@@H]1C=C[C@H](n2cc(C)c(=O)[nH]c2=O)O1 [AK 15] |  |  |  |  |  | 256 | 0.064 µg/mL (≈ 0.132 µM) | 378 | 0.064 µg/mL (≈ 0.132 µM) |  | 24.23 µg/mL | 16.5 µg/mL (≈ 33.9 µM) | 
